Measured values reported in PubChem BioAssay AID248 (DTP/NCI, 2004).
Several values for one entry are separate records, joined by “and”; a condition that tells them apart may be missing. Identical values can stand only once. Inconclusive results and toxic doses are left out. No stated cut-off is given here; in the data, active means T/C of 150% or more; inactive means T/C below 125%.

Tested on: L1210 leukemia ip in BDF1 mice, survival T/C
Assay: NCI In Vivo Anticancer Drug Screen. Data for tumor model L1210 Leukemia (intraperitoneal) in B6D2F1 (BDF1) mice
Settings: endpoint: mean survival time, higher = longer survival
Summary of the method: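 Read-out is survival time, reported as the treated-group measurement over the vehicle-control measurement.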

[1] = dose: 15.0 mg/kg/injection, schedule: Q01DX001 (ip), vehicle: saline
[2] = dose: 30.0 mg/kg/injection, schedule: Q01DX001 (ip), vehicle: saline
[3] = dose: 100.0 mg/kg/injection, schedule: Q01DX009 (ip), vehicle: saline
[4] = dose: 400.0 mg/kg/injection, schedule: Q01DX009 (ip), vehicle: saline
[5] = dose: 75.0 mg/kg/injection, schedule: Q01DX001 (ip), vehicle: saline
[6] = dose: 150.0 mg/kg/injection, schedule: Q01DX001 (ip), vehicle: saline
[7] = dose: 50.0 mg/kg/injection, schedule: Q04DX002 (ip), vehicle: saline with Tween-80
[8] = dose: 100.0 mg/kg/injection, schedule: Q04DX003 (ip), vehicle: Klucel (hydroxypropylcellulose) (HPC)
[9] = dose: 200.0 mg/kg/injection, schedule: Q04DX003 (ip), vehicle: Klucel (hydroxypropylcellulose) (HPC)
[10] = dose: 400.0 mg/kg/injection, schedule: Q04DX003 (ip), vehicle: Klucel (hydroxypropylcellulose) (HPC)
[11] = dose: 3.12 mg/kg/injection, schedule: Q01DX009 (ip), vehicle: saline
[12] = dose: 6.25 mg/kg/injection, schedule: Q01DX009 (ip), vehicle: saline
[13] = dose: 12.5 mg/kg/injection, schedule: Q01DX009 (ip), vehicle: saline
[14] = dose: 100.0 mg/kg/injection, schedule: Q01DX001 (ip), vehicle: saline
[15] = dose: 200.0 mg/kg/injection, schedule: Q01DX001 (ip), vehicle: saline
[16] = dose: 12.5 mg/kg/injection, schedule: Q01DX009 (ip), vehicle: saline with Tween-80
[17] = dose: 25.0 mg/kg/injection, schedule: Q01DX009 (ip), vehicle: saline with Tween-80
[18] = dose: 50.0 mg/kg/injection, schedule: Q01DX009 (ip), vehicle: saline with Tween-80
[19] = dose: 100.0 mg/kg/injection, schedule: Q04DX003 (ip), vehicle: saline with Tween-80

Measured: T/C

BrC1(C2(Br)N(c3ccccc3)CCN2c2ccccc2)N(c2ccccc2)CCN1c1ccccc1
inactive: dose: 7.5 mg/kg/injection, schedule: Q01DX001 (ip), vehicle: saline 105 % of control | dose: 7.5 mg/kg/injection, schedule: Q04DX003 (ip), vehicle: saline 108 % of control | [1] 105 % of control | dose: 15.0 mg/kg/injection, schedule: Q04DX003 (ip), vehicle: saline 106 % of control | [2] 112 % of control | dose: 30.0 mg/kg/injection, schedule: Q04DX003 (ip), vehicle: saline 100 % of control

CC12CC3(O)CCC1CCC2C(=O)C3 (configuration not stated)
inactive: [3] 95 % of control | dose: 100.0 mg/kg/injection, schedule: Q04DX003 (ip), vehicle: saline 93 % of control | dose: 200.0 mg/kg/injection, schedule: Q04DX003 (ip), vehicle: saline 96 % of control | [4] 96 % of control | dose: 400.0 mg/kg/injection, schedule: Q04DX003 (ip), vehicle: saline 105 % of control

CC(C)(C)OC(=O)N/N=C1\CC2CCC1C2 (configuration not stated)
inactive: dose: 100.0 mg/kg/injection, schedule: Q04DX003 (ip), vehicle: acetone 95 % of control

CC(C)=NC(=O)NO.[Cl][Mn][Cl]
inactive: dose: 37.5 mg/kg/injection, schedule: Q01DX009 (ip), vehicle: saline 105 % of control | [5] 91 % of control | dose: 75.0 mg/kg/injection, schedule: Q01DX009 (ip), vehicle: saline 111 % of control | [6] 104 % of control | dose: 150.0 mg/kg/injection, schedule: Q01DX009 (ip), vehicle: saline 105 % of control

O=C(/C=C/c1ccccc1)OC(C(=O)O)c1ccccc1 (configuration not stated)
inactive: [5] 105 % of control | [6] 101 % of control | dose: 300.0 mg/kg/injection, schedule: Q01DX001 (ip), vehicle: saline 109 % of control

O=C(O)CCC1CCC(=O)C1 (configuration not stated)
inactive: [7] 102 % of control | dose: 100.0 mg/kg/injection, schedule: Q04DX002 (ip), vehicle: saline with Tween-80 106 % of control | dose: 200.0 mg/kg/injection, schedule: Q04DX002 (ip), vehicle: saline with Tween-80 98 % of control | dose: 400.0 mg/kg/injection, schedule: Q04DX002 (ip), vehicle: saline with Tween-80 95 % of control

COC(=O)C1=COC(C)C2CN3CCc4c([nH]c5ccccc45)C3CC12 (configuration not stated)
inactive: dose: 25.0 mg/kg/injection, schedule: Q04DX003 (ip), vehicle: Klucel (hydroxypropylcellulose) (HPC) 96 % of control | dose: 50.0 mg/kg/injection, schedule: Q04DX003 (ip), vehicle: Klucel (hydroxypropylcellulose) (HPC) 98 % of control | dose: 100.0 mg/kg/injection, schedule: Q04DX002 (ip), vehicle: Klucel (hydroxypropylcellulose) (HPC) 98 % of control and 95 % of control | [8] 98 % of control | dose: 200.0 mg/kg/injection, schedule: Q04DX002 (ip), vehicle: Klucel (hydroxypropylcellulose) (HPC) 91 % of control and 102 % of control | [9] 95 % of control | dose: 400.0 mg/kg/injection, schedule: Q04DX002 (ip), vehicle: Klucel (hydroxypropylcellulose) (HPC) 87 % of control and 106 % of control | [10] 100 % of control

CCOC(=O)C(Cc1ccc2ccccc2n1)C(C)=O (configuration not stated)
inactive: dose: 50.0 mg/kg/injection, schedule: Q01DX009 (ip), vehicle: DMSO 86 % of control | dose: 100.0 mg/kg/injection, schedule: Q01DX009 (ip), vehicle: DMSO 102 % of control

CC(CN(C)C)CN1c2ccccc2Sc2ccc(C(F)(F)F)cc21 (configuration not stated)
inactive: dose: 0.78 mg/kg/injection, schedule: Q04DX003 (ip), vehicle: saline 108 % of control | dose: 1.56 mg/kg/injection, schedule: Q01DX009 (ip), vehicle: saline 111 % of control | dose: 1.56 mg/kg/injection, schedule: Q04DX003 (ip), vehicle: saline 96 % of control | [11] 104 % of control | dose: 3.12 mg/kg/injection, schedule: Q04DX003 (ip), vehicle: saline 105 % of control | [12] 105 % of control | dose: 6.25 mg/kg/injection, schedule: Q04DX003 (ip), vehicle: saline 97 % of control | [13] 109 % of control | dose: 12.5 mg/kg/injection, schedule: Q04DX003 (ip), vehicle: saline 105 % of control | dose: 25.0 mg/kg/injection, schedule: Q04DX003 (ip), vehicle: saline 109 % of control

O=C1C=C(Nc2ccccc2)C(=O)N1c1ccccc1
inactive: [14] 95 % of control | [15] 95 % of control

C=C(Cl)CNCC
inactive: [16] 91 % of control | [17] 97 % of control | [18] 119 % of control

CS(=O)(=O)OCC(O)C(O)CI (configuration not stated)
inactive: dose: 75.0 mg/kg/injection, schedule: Q01DX001 (ip), vehicle: water 104 % of control | dose: 150.0 mg/kg/injection, schedule: Q01DX001 (ip), vehicle: water 111 % of control | dose: 300.0 mg/kg/injection, schedule: Q01DX001 (ip), vehicle: water 116 % of control

O=C(NC(=S)Nc1ccccn1)c1ccccc1
inactive: dose: 25.0 mg/kg/injection, schedule: Q04DX002 (ip), vehicle: other 102 % of control | dose: 50.0 mg/kg/injection, schedule: Q04DX002 (ip), vehicle: other 100 % of control | dose: 100.0 mg/kg/injection, schedule: Q04DX002 (ip), vehicle: other 105 % of control | dose: 200.0 mg/kg/injection, schedule: Q04DX002 (ip), vehicle: other 86 % of control

O=C(Nc1ccc(S(=O)(=O)Nc2ccc(N=Nc3ccc(S(=O)(=O)Nc4nccs4)cc3)cc2)cc1)C(N1CC1)(N1CC1)N1CC1
inactive: [1] 105 % of control | [2] 105 % of control

Cc1cccc(C)c1NC(=O)Nc1ccc(S(N)(=O)=O)cc1
inactive: dose: 100.0 mg/kg/injection, schedule: Q01DX009 (ip), vehicle: Klucel (hydroxypropylcellulose) (HPC) 100 % of control | [8] 101 % of control | dose: 200.0 mg/kg/injection, schedule: Q01DX009 (ip), vehicle: Klucel (hydroxypropylcellulose) (HPC) 95 % of control and 97 % of control | [9] 94 % of control | dose: 400.0 mg/kg/injection, schedule: Q01DX009 (ip), vehicle: Klucel (hydroxypropylcellulose) (HPC) 100 % of control and 88 % of control | [10] 92 % of control

N#Cc1ccc2c(c1)Cc1cc([N+](=O)[O-])ccc1-2
inactive: dose: 100.0 mg/kg/injection, schedule: Q01DX001 (ip), vehicle: carboxymethylcellulose (CMC) 100 % of control | dose: 200.0 mg/kg/injection, schedule: Q01DX001 (ip), vehicle: carboxymethylcellulose (CMC) 105 % of control | dose: 400.0 mg/kg/injection, schedule: Q01DX001 (ip), vehicle: carboxymethylcellulose (CMC) 91 % of control

CCCNC1(C(N)=O)CCN(Cc2ccccc2)CC1
inactive: [17] 93 % of control | dose: 25.0 mg/kg/injection, schedule: Q04DX003 (ip), vehicle: saline with Tween-80 97 % of control | [18] 95 % of control | dose: 50.0 mg/kg/injection, schedule: Q04DX003 (ip), vehicle: saline with Tween-80 97 % of control | dose: 100.0 mg/kg/injection, schedule: Q01DX009 (ip), vehicle: saline with Tween-80 91 % of control | [19] 97 % of control and 101 % of control

Oc1ccc(C=NCC2CCCC[N-]2)c(O)c1.Oc1ccc(C=NCC2CCCC[N-]2)c(O)c1.[Ni+2] (configuration not stated)
inactive: [19] 95 % of control | dose: 200.0 mg/kg/injection, schedule: Q04DX003 (ip), vehicle: saline with Tween-80 87 % of control

c1cncc(-c2nnc(-c3cccnc3)o2)c1
inactive: dose: 12.5 mg/kg/injection, schedule: Q04DX002 (ip), vehicle: saline with Tween-80 124 % of control | [7] 91 % of control

Brc1nc(-c2ccccc2)c(-c2ccccc2)nc1Br
inactive: [14] 96 % of control | [15] 88 % of control | dose: 400.0 mg/kg/injection, schedule: Q01DX001 (ip), vehicle: saline 88 % of control

CCCCCCCCc1ccc(NC(N)=S)cc1
inactive: [11] 104 % of control | [12] 107 % of control | [16] 92 % of control | [13] 111 % of control

CN(C)/N=C/c1ccccc1O
inactive: [3] 96 % of control | dose: 200.0 mg/kg/injection, schedule: Q01DX009 (ip), vehicle: saline 104 % of control | [4] 96 % of control
